This series in a line: photoluminescence quantum yield (fraction); solvent given as SMILES.
The mark [1] stands for this setting: in O=P(c1ccccc1)(c1ccccc1)c1ccccc1Oc1ccccc1P(=O)(c1ccccc1)c1ccccc1.

`c1ccc2c(-n3c(-c4ccc(-c5ccc(-c6nc7c8ccccc8c8ccccc8c7n6-c6cccc7ccccc67)c6ccccc56)c5ccccc45)nc4c5ccccc5c5ccccc5c43)cccc2c1` registered a photoluminescence quantum yield (in ClCCl) of 0.75.
As for `F[B-]1(F)n2c(cc3oc4ccccc4c32)C(c2ccc(I)cc2)=C2C=c3oc4ccccc4c3=[N+]21`, the photoluminescence quantum yield (in ClC(Cl)Cl) was found to be 0.34.
For `CCCC1(CCC)c2ccccc2-c2ccc(-c3ccc(OC)cc3)cc21`, the photoluminescence quantum yield (in C1CCCCC1) was found to be 0.41.
As for `CCCCN1C(=S)c2cccc3cccc(c23)C1=S`, the photoluminescence quantum yield (in Cc1ccccc1) is 0.01.
Regarding `c1ccc(-c2nc(-c3ccccc3)nc(-c3ccc(-n4c5ccccc5c5c6oc7ccccc7c6ccc54)cc3)n2)cc1`, under setting [1], the photoluminescence quantum yield worked out at 0.853.
`C(=C\c1ccc(N(c2ccccc2)c2ccccc2)cc1)/c1ccc(-c2nc(-c3ccc(/C=C/c4ccc(N(c5ccccc5)c5ccccc5)cc4)cc3)nc(-c3ccc(/C=C/c4ccc(N(c5ccccc5)c5ccccc5)cc4)cc3)n2)cc1` came in with a photoluminescence quantum yield (in ClC(Cl)Cl) of 0.27.
For `N#Cc1nc(N(Cc2ccc(I)cc2)Cc2ccc(I)cc2)c(C#N)nc1N(Cc1ccc(I)cc1)Cc1ccc(I)cc1`, the photoluminescence quantum yield (in ClC(Cl)Cl) was 0.79.
In turn, `CC(C)(C)c1ccc(C2=C(c3ccc(-n4c5ccc(C(C)(C)C)cc5c5cc(C(C)(C)C)ccc54)cc3)S(=O)(=O)c3c2sc(-c2ccc(-n4c5ccc(C(C)(C)C)cc5c5cc(C(C)(C)C)ccc54)cc2)c3-c2ccc(C(C)(C)C)cc2)cc1` came in with a photoluminescence quantum yield (in C1CCOC1) of 0.164.
Under “in C1COCCO1”, `O=C1NC(c2ccccc2)=N/C1=C\c1ccccc1` registered a photoluminescence quantum yield of 0.001.
On to `c1ccc(-c2ccc(-c3ccc(-n4c5ccccc5c5ccccc54)cc3)c3nsnc23)cc1`, for which the photoluminescence quantum yield (in C1CCOC1) was determined as 0.426, the photoluminescence quantum yield (in CC(C)=O) was found to be 0.059, the photoluminescence quantum yield (in CCCCCC) was determined as 0.697 and the photoluminescence quantum yield (in CCOCC) was found to be 0.599.
Regarding `c1ccc(C(=C(c2ccccc2)c2ccc(-c3nc4c(-c5ccc(C(=C(c6ccccc6)c6ccccc6)c6ccccc6)cc5)sc(-c5ccc(C(=C(c6ccccc6)c6ccccc6)c6ccccc6)cc5)c4nc3-c3ccc(C(=C(c4ccccc4)c4ccccc4)c4ccccc4)cc3)cc2)c2ccccc2)cc1`, the photoluminescence quantum yield (in Cc1ccccc1) amounted to 0.267 and the photoluminescence quantum yield (in ClCCl) was determined as 0.109.
Regarding `CC(C)(C)c1ccc2c(c1)c1cc(C(C)(C)C)ccc1n2-c1ccc(C#Cc2ccccc2)cc1`, the photoluminescence quantum yield (in ClCCl) stood at 0.8.
`c1ccc(C2=C(c3ccccn3)[Si](c3ccccc3)(c3ccccc3)c3ccccc32)cc1` showed a photoluminescence quantum yield (in ClCCl) of 0.004.
Take `CC1(C)C(/C=C/C=C/C=C/C=C2/N(CCCCCC(=O)O)c3ccc(S(=O)(=O)[O-])cc3C2(C)C)=[N+](CCCCS(=O)(=O)[O-])c2ccc(S(=O)(=O)[O-])cc21`: the photoluminescence quantum yield by setting is: (in CO) 0.55; (in O) 0.3.
Under “in Cc1ccccc1”, `c1ccc(N2c3ccc4ccccc4c3-c3c4ccccc4cn[n+]3[B-]2(c2ccccc2)c2ccccc2)cc1` displayed a photoluminescence quantum yield of 0.05.
As to `COC(=O)CNC(=O)c1nc2c(N(C)C)nc(N(C)C)nc2n1Cc1ccccc1`, the photoluminescence quantum yield reads like this: (in C1COCCO1) 0.95; (in CC#N) 0.95; (in CO) 0.9; (in ClCCl) 0.91.
In turn, `CN(C)c1[se]c(-c2ccccc2)nc1-c1ccccc1` came in with a photoluminescence quantum yield (in ClC(Cl)Cl) of 0.029.
Turning to `Cc1ccc(/C=C/c2nc(-c3ccc([N+](=O)[O-])cc3)[nH]c2/C=C/c2ccc(C)cc2)cc1`, under “in ClCCl”, the photoluminescence quantum yield came out at 0.
Consider `Ic1ccc(C2=C3C=CC4=[N+]3[B-]3(Oc5ccccc54)Oc4ccccc4-c4ccc2n43)cc1` (stereo not given), for which, under “in ClC(Cl)Cl”, the photoluminescence quantum yield turned out to be 0.41.
As to `Cc1ccc2ccc3c(C)ccc4ccc1c2c43`, the photoluminescence quantum yield runs as follows: (in CCCCCC) 0.52; (in CO) 0.56; (in ClCCl) 0.4.
Take `CCOC(=O)c1ccc2c(c1)sc1c3ccc(C(=O)OCC)cc3n(C)c21`: under “in CCCO”, the photoluminescence quantum yield was determined as 0.65.
Turning to `CC[N+](CC)=c1ccc2c(-c3ccccc3C(=O)O)c3oc4cc(N)ccc4c3oc-2c1`, the photoluminescence quantum yield by setting is: (in CCO) 0.778; (in ClCCl) 0.726; (in O) 0.126.
Compound `CC(C)(C)c1ccc(-c2nnc(-c3c(-n4c5ccccc5c5ccccc54)c(-n4c5ccccc5c5ccccc54)c(-n4c5ccccc5c5ccccc54)c(-n4c5ccccc5c5ccccc54)c3-n3c4ccccc4c4ccccc43)o2)cc1` came in with a photoluminescence quantum yield (in Cc1ccccc1) of 0.13.
`CCCC(=O)c1c2c(c(C(=O)CCC)c3c1OC(CC(=O)OC)(C(=O)O)O3)OCO2`: the photoluminescence quantum yield came out at 0.25 (in CC#N), 0.12 (in CCO), 0.06 (in CO) and 0.02 (in O).
Regarding `CC1(C)c2ccccc2N(c2ccc3c(c2)c2cc(N4c5ccccc5C(C)(C)c5ccccc54)cc4c5ccccc5n3c42)c2ccccc21`, the photoluminescence quantum yield under setting [1] came out at 0.96.
Consider `COc1ccc(C#Cc2ccc(C#N)cc2)cc1`, for which the photoluminescence quantum yield (in C1COCCO1) was 0.1; the photoluminescence quantum yield (in CC#N) was found to be 0.09; the photoluminescence quantum yield (in CCCCCC) was determined as 0.15; the photoluminescence quantum yield (in CCCCCCC) is 0.17; the photoluminescence quantum yield (in CCCO) came out at 0.13; the photoluminescence quantum yield (in CCOC(C)=O) worked out at 0.08. Further, the photoluminescence quantum yield by setting is: (in CS(C)=O) 0.15; (in ClC(Cl)Cl) 0.13; (in ClCCl) 0.12.
In the case of `COc1cnc(-c2cc[n+](C3=C(F)C(F)(F)C(F)(F)[C-]3F)cc2)s1`, the photoluminescence quantum yield came to 0.64 (in CC#N); 0.44 (in CC(C)=O); 0.21 (in CCO); 0.04 (in CN(C)C=O); 0.08 (in CO); 0.02 (in CS(C)=O). For the same compound, the photoluminescence quantum yield is 0.73 (in ClC(Cl)Cl) and 0.76 (in ClCCl).
For the compound `O=Cc1ccc(C2=Cc3ccccc3P2(=O)c2ccccc2)cc1` (stereo not given), under “in ClCCl”, the photoluminescence quantum yield turned out to be 0.056.
Where the note is “in O=P(c1ccccc1)(c1ccccc1)c1ccc2oc3ccc(P(=O)(c4ccccc4)c4ccccc4)cc3c2c1”, `Cc1ccc2c(c1)C1(c3ccccc3Oc3ccccc31)c1cc(C)ccc1N2c1ccc(-c2nc(-c3ccccc3)cc(-c3ccccc3)n2)cc1` displayed a photoluminescence quantum yield of 0.69.
In turn, `O=P1(c2ccccc2)C(c2cccs2)=Cc2ccccc21` (stereo not given) yielded a photoluminescence quantum yield (in C1CCOC1) of 0.23.
Compound `N#Cc1cccc(C#N)c1-c1ccc(N2c3ccccc3C3(c4ccccc42)c2ccccc2N(c2ccc(-c4c(C#N)cccc4C#N)cc2)c2ccccc23)cc1` returned a photoluminescence quantum yield under setting [1] of 0.65.
Take `CCN1c2ccc(/C=N/Nc3ccccn3)cc2Sc2cc(/C=N/Nc3ccccn3)ccc21`: the photoluminescence quantum yield is, setting by setting: (in C1CCOC1) 0.15; (in CS(C)=O) 0.19; (in Cc1ccccc1) 0.14; (in ClCCl) 0.37.
`CCCCCCc1ccc2c3c(ccc2c1)O[B-](c1ccccc1)(c1ccccc1)[N+](c1cc([N+]2=Cc4c(ccc5cc(CCCCCC)ccc45)O[B-]2(c2ccccc2)c2ccccc2)cc([N+]2=Cc4c(ccc5cc(CCCCCC)ccc45)O[B-]2(c2ccccc2)c2ccccc2)c1)=C3`: the photoluminescence quantum yield reads like this: (in C1CCOC1) 0.21; (in CC#N) 0.19; (in Cc1ccccc1) 0.29; (in ClCCl) 0.31.
With `C[Si](C)(c1ccc2cc3ccccc3cc2c1)[Si](C)(C)c1ccc2cc3ccccc3cc2c1`, the photoluminescence quantum yield (in C1CCCCC1) turned out to be 0.18 and the photoluminescence quantum yield (in CC#N) was determined as 0.04.
Under “in ClCCl”, `Fc1ccc(N(c2ccccc2)c2ccc3ccc4c(N(c5ccccc5)c5ccc(F)cc5)ccc5ccc2c3c54)cc1` yielded a photoluminescence quantum yield of 0.8.
With `CN(C)c1ccc(-c2ccc(-c3nc(C#N)c(C#N)n3C)cc2)cc1`, the photoluminescence quantum yield (in C1CCCCC1) is 0.98, the photoluminescence quantum yield (in CC#N) was 0.013, the photoluminescence quantum yield (in CO) is 0.011 and the photoluminescence quantum yield (in ClC(Cl)Cl) amounted to 0.73.
Take `CC(=O)c1nc(-c2ccc(N(C)C)cc2)oc1C`: the photoluminescence quantum yield amounted to 0.029 (in CC#N); 0.019 (in CCO); 0.03 (in CCOC(C)=O); 0.016 (in CCOCC); 0.044 (in ClCCl).
`COc1c(-c2ccc(N(C)C)cc2)oc2ccccc2c1=O` yielded a photoluminescence quantum yield (in C1CCCCC1) of 0.048, a photoluminescence quantum yield (in C1CCOC1) of 0.88, a photoluminescence quantum yield (in CC#N) of 0.69 and a photoluminescence quantum yield (in CO) of 0.021.
In turn, `CCCCCCN1C(=O)c2cccc3cc(/N=C\c4nc5ccccc5s4)cc(c23)C1=O` displayed a photoluminescence quantum yield (in ClC(Cl)Cl) of 0.002.
For `Cc1ccc(-n2c(-c3cccc4cc[n-]c34)[nH+]c3c4ccccc4c4ccccc4c32)cc1`, where the note is “in Cc1ccccc1”, the photoluminescence quantum yield came to 0.015.
`CC[N+](CC)=c1ccc2cc3c(oc-2c1)-c1ccc(N(C)C)cc1CC3`: the photoluminescence quantum yield is, setting by setting: (in CCO) 0.618; (in ClCCl) 0.724; (in O) 0.282.
Regarding `CCCCCCc1cc(-c2ccc3c(c2)C2CCCC2N3c2ccc3c(c2)C(C)(C)c2ccccc2-3)sc1/C=C1\C(=O)c2ccc(C(=O)O)cc2C1=O` (stereo not given), where the note is “in ClC(Cl)Cl”, the photoluminescence quantum yield was 0.24.
For `CC(C)[Si]1(C(C)C)c2cc(C#N)ccc2-c2ccc(N(C)C)cc21`, the photoluminescence quantum yield (in C1CCCCC1) was 0.6; the photoluminescence quantum yield (in CC#N) was 0.65; the photoluminescence quantum yield (in CCO) was 0.74; the photoluminescence quantum yield (in CCOCC) worked out at 0.66; the photoluminescence quantum yield (in CS(C)=O) is 0.51; the photoluminescence quantum yield (in ClCCl) is 0.79. The photoluminescence quantum yield (in c1ccccc1) was determined as 0.62.
`CCCCNC(=O)c1sc(-c2ccc(-c3cc(-c4ccc(C(C)(C)C)cc4)c(C(=O)NCCCC)s3)s2)cc1-c1ccc(C(C)(C)C)cc1` gave a photoluminescence quantum yield (in ClCCl) of 0.32.
For `CCC[Si](CCC)(CCC)c1cc2ccc3cccc4ccc(c1C(=O)NC(C)(C)C)c2c34`, under “in ClC(Cl)Cl”, the photoluminescence quantum yield is 0.161.
